Assay results reported in paper PMC8095314 (ChemistryOpen, 2021).
“And” between values parts separate entries of the source, which are not always exact repeats. Equal entries are not always repeated.

What was measured:
[1] = biological target: recombinant human CA II (Homo sapiens, UniProt P00918); details: read-out: Kd CA II (FTSA); observed, pH 7.0, 37 °C; cited from earlier work
[2] = biological target: T1, recombinant human CA XII (Homo sapiens, UniProt O43570); format: binding; details: from FTSA Kd
T1 sequence (O43570 25-354): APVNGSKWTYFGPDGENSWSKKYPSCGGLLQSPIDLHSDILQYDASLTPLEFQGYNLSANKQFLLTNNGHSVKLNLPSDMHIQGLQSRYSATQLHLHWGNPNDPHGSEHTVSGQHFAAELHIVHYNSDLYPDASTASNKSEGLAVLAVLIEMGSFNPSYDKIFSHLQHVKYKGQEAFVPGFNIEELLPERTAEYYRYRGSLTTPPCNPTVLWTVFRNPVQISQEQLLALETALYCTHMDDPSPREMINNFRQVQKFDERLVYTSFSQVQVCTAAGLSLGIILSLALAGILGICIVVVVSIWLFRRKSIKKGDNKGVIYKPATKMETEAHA

[3] = biological target: T1, recombinant human CA XII; details: read-out: Kd CA XII (FTSA); observed, pH 7.0, 37 °C; cited from earlier work
[4] = biological target: chCA XII (Homo sapiens, UniProt P00918, A65S/F130A/I91T/L203N/N67K/V134S); experiment: Fluorescent thermal shift assay
[5] = test system: His64; experiment: kinetics; details: cited from earlier work

Kd ratio CA XII/CA II [2] | Kd [4] | Molecule | Kd [1] | Kd [3] | pKa [5]
8.2 | 6.7 µM | NS(=O)(=O)c1ccc2ccccc2c1 [Compound 37, naphthalene‐2‐sulfonamide] | 0.77 µM | 6.3 µM | 
 |  | Carbonic anhydrase XII (CA XII) (Homo sapiens) |  |  | 8.0±0.2 and 7.5±0.1
